In data set [1] the test system is Normal, nontransgenic (NonTg) C57/B6 mice. In words: rotorod performance task (motor function). It is filed as in vivo. To be noted: diet supplemented with additional 200 mg/kg tocopherol from 40 days of age; versus basal diet or α-tocopherol supplemented diet. How it is done:
Normal, nontransgenic (NonTg) C57/B6 mice were studied for efficacy of γT on motor performance and/or enhanced muscle function. Beginning at 40 days of age, animals were fed a basal AIN93G laboratory animal diet containing 75 mg/kg α-tocopherol and negligible γ-tocopherol; or the same diet supplemented with an additional 200 mg/kg α-tocopherol or γ-tocopherol. Motor function was measured by a standard rotorod performance task (Klivenyi et al., 1999). Animals were placed on a motorized, rubber-coated metal rod that was set to rotate at 1 rpm increasing by 1 rpm every 10 seconds (Klivenyi et al., 1999). The speed of the rod rotation at which the mouse falls off is taken as a measure of motor competency (Klivenyi et al., 1999). Each mouse was tested in three trials every 10 days.
(The rotarod test checks motor coordination on a turning rod.)

For data set [2] the following is noted: cited from earlier work; for absorption by the gut: Traber et al., 1992.
Data set [3] relates to tocopherol-depleted rats. Conditions: rats fed tocopherol for two weeks after chronic iron-dextran (Dillard et al., 1983); cited from earlier work.
Data set [4] concerns methylcholanthrene-treated C3H/10T1/2 fibroblasts. Conditions: methylcholanthrene-treated C3H/10T1/2 fibroblasts (Cooney et al., 1993); cited from earlier work.
The conditions of data set [5]: liposomal tocopherol exposed to synthetic peroxynitrite (Christen et al., 1997); cited from earlier work.
For data set [6] the following is noted: relative to the corresponding reaction of αT (Cooney et al., 1993); cited from earlier work.
The test system of data set [7] is iron-induced lipid peroxidation and occlusive thrombus formation. To be noted: Saldeen et al., 1999; cited from earlier work.
Data set [8] concerns humans. Conditions: limited trials in humans (Clarkson 1995; Powers and Lennon 1999); cited from earlier work.
Data set [9] relates to rodent. Conditions: rodent (Novelli et al., 1990); cited from earlier work.

`Cc1c(O)cc2c(c1C)O[C@](C)(CCC[C@H](C)CCC[C@H](C)CCCC(C)C)CC2` [γ-tocopherol]: in data set [1], the “capability of performing the motor function task (rotorod)” value is listed as “significantly more capable of performing the motor function task”. In addition, in data set [2], the “absorption by the gut” value is recorded as “absorbed equally well”. In addition, the packaging into lipoproteins entry in data set [2] (relative to αT (Traber et al., 1992)) is on record as “less effectively”. In addition, in data set [3], the “effectiveness at inhibiting systemic lipid oxidation relative to αT” value is “approximately 35%” and the “inhibition of systemic lipid oxidation” value is “inhibited systemic lipid oxidation”. In addition, in data set [4], the “effectiveness at inhibiting neoplastic transformation relative to αT” value is 4 fold. The “effectiveness at inhibiting lipid hydroperoxide formation relative to αT” value in data set [5] is given as “twice as effective”. In data set [6], the “rate of in vitro reaction with NO2 gas relative to αT” value is reported as 6 times. Also, the “potency at inhibition of iron-induced lipid peroxidation and occlusive thrombus formation relative to αT” value in data set [7] was 20-30 times.

For the molecule `Cc1c(C)c2c(c(C)c1O)CC[C@@](C)(CCC[C@H](C)CCC[C@H](C)CCCC(C)C)O2` [α-tocopherol, reference compound], in [2], the “absorption by the gut” value was “absorbed equally well”. Moreover, the “inhibition of systemic lipid oxidation” value in [3] was “inhibited systemic lipid oxidation”. In addition, in data set [8], the muscle endurance result is listed as “did not extend muscle endurance”. In addition, the “endurance during a swimming test” value in data set [9] was “extended rodent endurance”.

Source of the values: US20040034093A1, “Methods for enhancing motor performance and/or endurance” (priority 2002, published 2004).
